Laboratory results published in US11992012B2, “Diaminotriazine compounds” (BASF SE, priority 2018, dated 2024).

Legend:
Assay in all cases: greenhouse pre-emergence herbicidal test
Format in all cases: in vivo
Details in all cases: 250 g/ha, scale 0 to 100
[1] = tested on: Amaranthus retroflexus
Description: (§1) The culture containers used were plastic flowerpots containing loamy sand with approximately 3.0% of humus as the substrate. The seeds of the test plants were sown separately for each species.
(§2) For the pre-emergence treatment, the active ingredients, which had been suspended or emulsified in water, were applied directly after sowing by means of finely distributing nozzles. The containers were irrigated gently to promote germination and growth and subsequently covered with transparent plastic hoods until the plants had rooted. This cover caused uniform germination of the test plants, unless this had been impaired by the active ingredients.
(§3) Depending on the species, the plants were kept at 10-25° C. or 20-35° C., respectively.
(§4) The test period extended over 2 to 4 weeks. During this time, the plants were tended, and their response to the individual treatments was evaluated.
(§5) Evaluation was carried out using a scale from 0 to 100. 100 means no emergence of the plants, or complete destruction of at least the aerial moieties, and 0 means no damage, or normal course of growth. A moderate herbicidal activity is given at values of at least 60, a good herbicidal activity is given at values of at least 70, and a very good herbicidal activity is given at values of at least 85.

[2] = tested on: Echinocloa crus-galli
Description: as §1, §2, §3, §4, §5

[3] = tested on: Setaria faberi
Description: The culture containers used were plastic flowerpots containing loamy sand with approximately 3.0% of humus as the substrate. The seeds of the test plants were sown separately for each species. For the pre-emergence treatment, the active ingredients, which had been suspended or emulsified in water, were applied directly after sowing by means of finely distributing nozzles. The containers were irrigated gently to promote germination and growth and subsequently covered with transparent plastic hoods until the plants had rooted. This cover caused uniform germination of the test plants, unless this had been impaired by the active ingredients. […] The test period extended over 2 to 4 weeks. During this time, the plants were tended, and their response to the individual treatments was evaluated. Evaluation was carried out using a scale from 0 to 100. 100 means no emergence of the plants, or complete destruction of at least the aerial moieties, and 0 means no damage, or normal course of growth.

For CC(C)(F)c1nc(N)nc(Nc2c(F)cccc2OCc2cccs2)n1 [Example 154], the herbicidal activity [1] was 100%, the herbicidal activity [2] was 100% and the herbicidal activity [3] was 100%.
CC(F)c1nc(N)nc(Nc2c(F)cccc2OCc2ccccc2)n1 (stereo not shown) [Example 161] gave a herbicidal activity [2] of 100% and a herbicidal activity [3] of 100%.
Work on CCCC(F)c1nc(N)nc(Nc2c(OCc3ccccc3)cc(F)c(F)c2F)n1 (stereo not shown) [Example 169] yielded a herbicidal activity [1] of 80% and a herbicidal activity [3] of 85%.
In the case of CCCC(F)c1nc(N)nc(Nc2c(F)ccc(F)c2OCc2ccccc2)n1 (stereo not shown) [Example 170], the herbicidal activity [1] is reported as 90%, the herbicidal activity [2] is reported as 100% and the herbicidal activity [3] is reported as 90%.
In the case of CC(F)c1nc(N)nc(Nc2c(F)cccc2OC(F)(F)c2ccccc2)n1 (stereo not shown) [Example 171], the herbicidal activity [1] is reported as 100%, the herbicidal activity [2] is reported as 85% and the herbicidal activity [3] is reported as 100%.
Compound CC(C)(F)c1nc(N)nc(Nc2c(OCc3c(F)cccc3Cl)ccc(F)c2F)n1 [Example 176] has a herbicidal activity [1] of 80%, a herbicidal activity [2] of 100% and a herbicidal activity [3] of 100%.
COC(C)c1nc(N)nc(Nc2c(F)ccc(F)c2OCc2ccccc2)n1 (stereo not shown) [Example 191] was tested, and the herbicidal activity [1] was 95%, the herbicidal activity [2] was 100% and the herbicidal activity [3] was 100%.
In the case of COc1ccc(COc2c(F)ccc(F)c2Nc2nc(N)nc(C(C)(C)F)n2)cc1 [Example 192], the herbicidal activity [2] is reported as 100% and the herbicidal activity [3] is reported as 100%.
CC(C)c1nc(N)nc(Nc2c(F)cccc2OCc2ccccc2)n1 [Example 194] gave a herbicidal activity [2] of 100% and a herbicidal activity [3] of 70%.
Compound CC(F)c1nc(N)nc(Nc2c(F)c(F)cc(F)c2OCc2ccccc2)n1 (stereo not shown) [Example 209] has a herbicidal activity [1] of 100%, a herbicidal activity [2] of 100% and a herbicidal activity [3] of 100%.
In the case of COc1ccccc1COc1c(F)cc(F)c(F)c1Nc1nc(N)nc(C(C)F)n1 (stereo not shown) [Example 210], the herbicidal activity [1] is reported as 100%, the herbicidal activity [2] is reported as 100% and the herbicidal activity [3] is reported as 100%.
COc1cccc(COc2c(F)cc(F)c(F)c2Nc2nc(N)nc(C(C)F)n2)c1 (stereo not shown) [Example 211] was tested, and the herbicidal activity [1] was 100%, the herbicidal activity [2] was 100% and the herbicidal activity [3] was 100%.
Compound COc1ccc(COc2c(F)cc(F)c(F)c2Nc2nc(N)nc(C(C)F)n2)cc1 (stereo not shown) [Example 212] has a herbicidal activity [1] of 100%, a herbicidal activity [2] of 100% and a herbicidal activity [3] of 100%.
In the case of COC(C)(C)c1nc(N)nc(Nc2c(F)c(F)cc(F)c2OCc2ccccc2)n1 [Example 213], the herbicidal activity [1] is reported as 100%, the herbicidal activity [2] is reported as 100% and the herbicidal activity [3] is reported as 100%.
For COc1cccc(COc2c(F)cc(F)c(F)c2Nc2nc(N)nc(C(C)(C)OC)n2)c1 [Example 215], the herbicidal activity [1] was 100%, the herbicidal activity [2] was 98% and the herbicidal activity [3] was 98%.
For Cc1cccc(COc2c(F)cc(F)c(F)c2Nc2nc(N)nc(C(C)F)n2)c1 (stereo not shown) [Example 230], the herbicidal activity [1] was 95%, the herbicidal activity [2] was 95% and the herbicidal activity [3] was 95%.
CC(C)(F)c1nc(N)nc(Nc2c(F)c(Br)cc(Br)c2OCc2ccccc2)n1 [Example 235] gave a herbicidal activity [1] of 85%, a herbicidal activity [2] of 90% and a herbicidal activity [3] of 100%.
COC(C)c1nc(N)nc(Nc2c(F)c(F)cc(F)c2OCc2ccccc2C)n1 (stereo not shown) [Example 237] showed a herbicidal activity [1] of 95%, a herbicidal activity [2] of 100% and a herbicidal activity [3] of 95%.
Work on COC(C)c1nc(N)nc(Nc2c(F)c(F)cc(F)c2OCc2cccc(C)c2)n1 (stereo not shown) [Example 238] yielded a herbicidal activity [1] of 80%, a herbicidal activity [2] of 98% and a herbicidal activity [3] of 100%.
CC(C)(F)c1nc(N)nc(Nc2c(F)ccc(C#N)c2OCc2ccccc2)n1 [Example 259] showed a herbicidal activity [1] of 100% and a herbicidal activity [3] of 100%.
